We go through 6 molecules from patent US5858684A, “Method of screening calcium receptor-active molecules” (priority 1995, dated 1999).

For one data set, the target named is T1, C-cell calcium receptor (Rattus norvegicus, UniProt P48442).
T1 sequence (P48442 20-1079): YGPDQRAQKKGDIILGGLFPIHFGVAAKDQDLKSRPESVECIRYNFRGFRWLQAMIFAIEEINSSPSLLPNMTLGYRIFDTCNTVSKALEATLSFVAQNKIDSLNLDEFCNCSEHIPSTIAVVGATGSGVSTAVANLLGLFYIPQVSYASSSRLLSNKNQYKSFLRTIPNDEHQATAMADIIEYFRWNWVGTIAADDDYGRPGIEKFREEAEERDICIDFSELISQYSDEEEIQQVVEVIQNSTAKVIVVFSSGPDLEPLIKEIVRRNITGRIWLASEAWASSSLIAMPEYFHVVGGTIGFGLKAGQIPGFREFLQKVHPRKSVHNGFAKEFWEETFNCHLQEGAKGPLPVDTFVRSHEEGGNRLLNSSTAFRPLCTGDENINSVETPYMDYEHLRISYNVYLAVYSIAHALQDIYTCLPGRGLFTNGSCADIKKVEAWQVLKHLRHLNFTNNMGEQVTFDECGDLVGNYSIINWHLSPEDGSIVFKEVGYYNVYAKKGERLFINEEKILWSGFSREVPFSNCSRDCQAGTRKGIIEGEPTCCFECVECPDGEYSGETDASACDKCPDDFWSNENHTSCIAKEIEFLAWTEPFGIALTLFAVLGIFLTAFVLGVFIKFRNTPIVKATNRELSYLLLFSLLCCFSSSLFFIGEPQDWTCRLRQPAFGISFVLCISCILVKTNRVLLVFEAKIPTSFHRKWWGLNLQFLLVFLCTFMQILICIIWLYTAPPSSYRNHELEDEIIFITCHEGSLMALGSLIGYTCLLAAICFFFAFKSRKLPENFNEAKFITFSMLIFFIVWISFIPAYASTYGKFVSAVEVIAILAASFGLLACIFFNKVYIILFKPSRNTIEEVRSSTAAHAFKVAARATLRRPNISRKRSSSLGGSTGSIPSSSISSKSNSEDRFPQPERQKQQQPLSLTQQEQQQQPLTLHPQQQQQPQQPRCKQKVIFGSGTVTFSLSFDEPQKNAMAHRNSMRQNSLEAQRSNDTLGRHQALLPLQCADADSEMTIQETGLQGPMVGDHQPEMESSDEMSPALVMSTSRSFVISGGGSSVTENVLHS
The format is cell-based. Further details: Neoplastic C-cells derived from a rat medullary thyroid carcinoma (rMTC 6-23); host or cells: rMTC 6-23. To be noted: rMTC 6-23 cells, fura-2; inactive = no increase in cytosolic Ca2+ at 1-5 mM.

Data set [1] deals with T2, calcium receptor expressed from bovine parathyroid cell mRNA in Xenopus oocytes (Bos taurus, UniProt P35384).
T2 sequence (P35384 20-1085): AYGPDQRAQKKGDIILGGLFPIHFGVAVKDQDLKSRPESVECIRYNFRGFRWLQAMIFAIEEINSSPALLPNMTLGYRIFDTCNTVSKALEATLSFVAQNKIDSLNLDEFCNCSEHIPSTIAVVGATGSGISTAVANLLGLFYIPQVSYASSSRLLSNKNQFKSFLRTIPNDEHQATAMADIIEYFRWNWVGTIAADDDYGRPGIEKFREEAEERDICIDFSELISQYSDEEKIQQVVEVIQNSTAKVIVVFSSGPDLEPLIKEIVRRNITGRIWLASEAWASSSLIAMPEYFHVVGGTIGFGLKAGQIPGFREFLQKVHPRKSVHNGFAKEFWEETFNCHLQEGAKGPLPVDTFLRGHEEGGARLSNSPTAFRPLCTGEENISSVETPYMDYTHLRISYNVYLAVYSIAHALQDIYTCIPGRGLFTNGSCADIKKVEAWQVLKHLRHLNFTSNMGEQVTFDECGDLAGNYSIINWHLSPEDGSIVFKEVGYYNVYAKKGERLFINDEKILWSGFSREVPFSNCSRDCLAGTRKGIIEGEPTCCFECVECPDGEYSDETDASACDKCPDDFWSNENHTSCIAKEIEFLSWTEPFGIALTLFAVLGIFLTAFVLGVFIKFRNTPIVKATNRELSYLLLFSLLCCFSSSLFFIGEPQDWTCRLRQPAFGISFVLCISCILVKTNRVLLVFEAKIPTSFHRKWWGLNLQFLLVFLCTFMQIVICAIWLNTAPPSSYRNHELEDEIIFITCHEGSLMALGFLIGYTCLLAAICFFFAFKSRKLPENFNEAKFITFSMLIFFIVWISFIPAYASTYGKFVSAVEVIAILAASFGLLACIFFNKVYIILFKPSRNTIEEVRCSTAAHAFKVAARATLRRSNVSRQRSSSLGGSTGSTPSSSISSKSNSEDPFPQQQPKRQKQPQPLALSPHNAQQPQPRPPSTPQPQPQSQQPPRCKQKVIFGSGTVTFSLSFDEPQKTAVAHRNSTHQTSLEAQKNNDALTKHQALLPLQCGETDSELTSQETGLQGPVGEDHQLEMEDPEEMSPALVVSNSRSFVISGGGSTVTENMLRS
Description: Cl- current in Xenopus oocytes injected with bovine parathyroid mRNA. The class given is cell-based. To be noted: for oscillatory increases in Cl- current (words): bovine parathyroid mRNA. As to the method: Glass capillary tubes (1 mm diameter) were pulled to a fine tip and manually broken to achieve a tip diameter of about 15 μmeters. A droplet of mRNA (1 ng/nl in diethylpyrocarbonate (DEPC)-treated water) was placed onto […]® and drawn into the capillary tube by suction. The capillary tube was then connected to a picospritzer (WPI Instruments) and the volume of the air-pulsed droplets adjusted to deliver 50 ng of mRNA (typically 50 nl). A 35-mm culture dish with a patch of nylon stocking fixed to the bottom was used to secure the oocytes during injection of mRNA into the vegetal pole. The injected oocytes were placed into a 35-mm culture dish containing MBS, 100 μg/ml penicillin and 100 μg/ml streptomycin and incubated at 18° C. for 3 days.
Following incubation, an oocyte was placed into a 100-μl plastic chamber and superfused with MBS at a flow rate of 0.5 ml/min using a peristaltic pump. Test molecules or inorganic polycations were added by rapidly moving the tubing into different buffers. Recording and current-passing electrodes were constructed from thin-wall capillary tubing pulled to a resistance of 1-3 Mohms and filled with 3M KCl. […] Currents were recorded directly onto a strip chart recorder.

Data set [2] relates to osteoclast calcium receptor. Description: increase in [Ca2+]i in indo-1-loaded rat osteoclasts. The class given is cell-based. To be noted: rat osteoclasts, indo-1; inactive = no increase in cytosolic Ca2+ at 1-5 mM; read-out: EC50 OSTEOCLAST (Table 6).
Data set [3] deals with T3, bovine parathyroid cell calcium receptor (BoPCaR 1) (Bos taurus, UniProt P35384).
T3 construct: Xenopus oocytes were injected with BoPCaR 1, the 5.3 Kb cDNA encoding a bovine parathyroid cell calcium receptor; expressed in transfected cells; host or cells: Xenopus laevis oocytes injected with cRNA/cDNA of BoPCaR 1
T3 sequence (P35384 20-1085): T2 sequence (P35384 20-1085)
Description: inositol 1,4,5-triphosphate in Xenopus oocytes expressing BoPCaR 1. The format is cell-based. Particulars: 10 μg/ml, 48 hours. An excerpt: These responses are mediated by the following series of biochemical events:
(1) Activation of phospholipase C by a pertussis toxin-sensitive guanine nucleotide regulatory (G) protein resulting in 4-7 fold increases in the levels of inositol 1,4,5-triphosphate (IP3).

For data set [4] the following is noted: cited from earlier work.
Data set [5] can be described thus: serum/blood ionized Ca2+ in rats. The class given is in vivo, rat. To be noted: i.p. As to the method: (§1) Compounds shown to activate the bovine parathyroid cell calcium receptor in vitro were tested for hypocalcemic activity in vivo. Male Sprague-Dawley rats (200 g) were maintained on a low calcium diet for one week prior to receiving test substance or vehicle as control. Blood was collected from the tail vein three hours after the intraperitoneal administration of NPS 467. […] Serum total calcium, albumin and phosphate were measured by techniques well known in the art.
Rats (male, Sprague-Dawley, 250-300 g) were fed standard rat chow and fasted overnight prior to the experiment. NPS R-467 was suspended in corn oil and administered as a single oral dose through a gavage needle. Three hours later a sample of blood was taken from the tail vein and assessed for ionized Ca^2+ levels.

The nature of another data set: circulating PTH in rats. The class given is in vivo, rat.
Data set [6] can be described thus: serum albumin and phosphate in rats. The format is in vivo, rat. To be noted: any dose examined. As for the experimental part:
as §1

Data set [7] relates to cyclic AMP formation in bovine parathyroid cells. The class given is cell-based.
Description: Cells were incubated as above for PTH secretion studies and at the end of the incubation, a 0.15-ml sample was taken and transferred to 0.85 ml of hot (70° C.) water and heated at this temperature for 5-10 minutes. The tubes were subsequently frozen and thawed several times and the cellular debris sedimented by centrifugation. Portions of the supernatant were acetylated and cyclic AMP concentrations determined by radioimmunoassay.
Each value is the mean±SEM of three experiments.
Data set [8] deals with inositol phosphate formation in bovine parathyroid cells. Put plainly: inositol phosphate formation in bovine parathyroid cells. The class given is cell-based. As for the experimental part: After 30 seconds, the reaction was terminated by the addition of CHCl3 :MeOH:HCl and IP1 (circles) and IP3 (triangles) separated by anion exchange chromatography. Each point is the mean of 2 experiments, each performed in triplicate.
This section describes procedures measuring inositol phosphate formation. Membrane phospholipids were labeled by incubating parathyroid cells with 4 μCi/ml ^3 H-myo-inositol for 20-24 hours. Cells were then washed and resuspended in PCB containing 0.5 mM CaCl2 and 0.1% BSA. Incubations were performed in microfuge tubes in the absence or presence of various concentrations of organic polycation for different times. Reactions were terminated by the addition of 1 ml chloroform-methanol-12N HCl (200:100:1; v/v/v). Aqueous phytic acid hydrolysate (200 μl; 25 μg phosphate/tube). The tubes were centrifuged and 600 μl of the aqueous phase was diluted into 10 ml water.
Inositol phosphates were separated by ion-exchange chromatography using AG1-X8 in either the chloride- or formate-form. When only IP3 levels were to be determined, the chloride-form was used, whereas the formate form was used to resolve the major inositol phosphates (IP3, IP2, and IP1). For determination of just IP3, the diluted sample was applied to the chloride-form column and the column was washed with 10 ml 30 mM HCl followed by 6 ml 90 mM HCl and the IP3 was eluted with 3 ml 500 mM HCl. The last eluate was diluted and counted. For determination of all major inositol phosphates, the diluted sample was applied to the formate-form column and IP1, IP2, and IP3 eluted sequentially by increasing concentrations of formate buffer. The eluted samples from the formate columns were rotary evaporated, the residues brought up in cocktail, and counted.

Data set [9] relates to parathyroid cell calcium receptor. The format is cell-based.
Description: For example, bovine parathyroid cells loaded with fura-2 are initially suspended in buffer containing 0.5 mM CaCl2. A test substance is added to the cuvette in a small volume (5-15 μl) and changes in the fluorescence signal are measured. Cumulative increases in the concentration of the test substance are made in the cuvette until some predetermined concentration is achieved or no further changes in fluorescence are noted.
This section describes procedures used to obtain and treat parathyroid cells from calves and humans. […] Human parathyroid glands, were obtained from patients undergoing surgical removal of parathyroid tissue for primary or uremic hyperparathyroidism (uremic HPT), and were treated similarly to bovine tissue.
Glands were trimmed of excess fat and connective tissue and then minced with fine scissors into cubes approximately 2-3 mm on a side. Dissociated parathyroid cells were prepared by collagenase digestion and then purified by centrifugation in Percoll buffer. The resultant parathyroid cell preparation was essentially devoid of red blood cells, adipocytes, and capillary tissue as assessed by phase contrast microscopy and Sudan black B staining. Dissociated and purified parathyroid cells were present as small clusters containing 5 to 20 cells.
The cells were then pelleted, resuspended in the same buffer, but lacking the ester, and incubated a further 15 minutes at 37° C. The cells were subsequently washed twice with PCB containing 0.5 mM CaCl2 and 0.5% BSA and maintained at room temperature (about 20° C.). Immediately before use, the cells were diluted five-fold with prewarmed 0.5 mM CaCl2 -PCB to obtain a final BSA concentration of 0.1%. The concentration of cells in the cuvette used for fluorescence recording was 1-2×10^6 /ml.
The fluorescence of indicator-loaded cells was measured at 37° C. in a spectrofluorimeter (Biomedical Instrumentation Group, University of Pennsylvania, Philadelphia, Pa.) equipped with a thermostated cuvette holder and magnetic stirrer using excitation and emission wavelengths of 340 and 510 nm, respectively. […] Leakage of dye is dependent on temperature and most occurs within the first 2 minutes after warming the cells in the cuvette. Dye leakage increases only very slowly thereafter. To correct the calibration for dye leakage, cells were placed in the cuvette and stirred at 37° C. for 2-3 minutes. The cell suspension was then removed, the cells pelleted, and the supernatant returned to a clean cuvette. […] This estimate was subtracted from the apparent Fmin.
Dissociated bovine parathyroid cells were purified on gradients of Percoll and cultured overnight in serum-free medium.
The test system of data set [10] is PTH secretion from bovine parathyroid cells. Put plainly: PTH secretion from bovine parathyroid cells. The format is cell-based.
Description: PTH secretion was measured by first suspending cells in PCB containing 0.5 mM CaCl2 and 0.1% BSA.
A short description of another data set: net positive charge. The format is physicochemical.

Entries after “also recorded” stand apart in the source; their conditions may differ.

Description for C-cell calcium receptor: To assess the effects of molecular polycations on C-cells, a neoplastic cell line, derived from a rat medullary thyroid carcinoma (rMTC 6-23 cells) was used.

The term EC50 denotes the concentration giving half of the maximal effect. Take `CC(NCCC(c1ccccc1)c1ccccc1)c1ccccc1` (racemic) [Fendiline, diphenylpropyl-α-phenethylamine]: the EC50 was above 100 µM at C-cell calcium receptor and 200 µM in data set [2]. For the same molecule, the “concentration eliciting oscillatory increases in Cl- current” value in [1] was 100 µM. The entries for the “oscillatory increases in Cl- current (words)” value in data set [1] and in data set [1] (listed as fendiline) were “evokes the mobilization of intracellular” and “evokes oscillatory increases”, respectively.
As for pertussis toxin, in data set [3], the “inhibition of the increase in IP3 by pertussis toxin” value was 75%.
Regarding `NCCCC[C@H](N)C(=O)O` [lysine], the “interaction with phospholipid vesicles” value in [4] was “not interacting to a significant extent”.
In the case of `COc1cccc(C(C)NCCCc2ccccc2)c1` (racemic) [NPS 467], the “serum or blood Ca2+” value in [5] (low calcium diet, 3 hours after dosing, rats) is “dose-dependent reduction in serum or whole blood”. The “time of maximal hypocalcemic effect” value in data set [5] (returned toward control levels after 24 hours) is “maximal within three hours”. In addition, the “circulating levels of PTH” value in “circulating PTH in rats” is given as “dose-dependent reduction in circulating levels of PTH”. The “serum albumin or phosphate levels” value in data set [6] is recorded as “no change in serum albumin or phosphate levels”.
Turning to protamine, in [7], the “isoproterenol-induced cyclic AMP” value is “depressed isoproterenol-induced increases”. For the same molecule, in data set [8], the “formation of inositol phosphates” value is given as “increases the formation of inositol phosphates” and the “onset of increase in IP3 formation” value is at most 30 s. Moreover, the “increase in [Ca2+]i / mobilization of intracellular Ca2+” value in data set [9] was “evoked rapid and transient increases”. Also, the “inhibition of PTH secretion” value in [10] (bovine parathyroid cells) is “inhibit PTH secretion; also recorded: inhibited PTH secretion to the same extent”. Besides, in “net positive charge”, the “net positive charge” value is “+21”.
As for `CCCCCCCCCCCCCC(=O)O[C@@H]1[C@@H](C)[C@@]2(O)[C@@H](C=C(CO)C[C@]3(O)C(=O)C(C)=C[C@@H]23)[C@@H]2C(C)(C)[C@]12OC(C)=O` [PMA, phorbol myristate acetate], in data set [8] (100 nM PMA, 5 minutes), the “IP1 formation evoked by extracellular Ca2+ or spermine” value is listed as “depresses the formation of IP1”. Also, the “shift of concentration-response curve for [Ca2+]i” value in data set [9] (100 nM PMA) is on record as “shifts to the right”. Further, in data set [10] (100 nM PMA), the “shift of concentration-response curve for PTH secretion” value is listed as “shifts to the right”.
